Assay results from US10039741B2, “Use of delta tocopherol for the treatment of lysosomal storage disorders” (The United States of America, as represented by the …, priority 2010, dated 2018).

How the values were obtained:
NPC fibroblasts = assay: Lipid measurement by mass spectrometry (GC/MS); assay type: cell-based, human; settings: 80 μM α-tocopherol or 40 uM δ-tocopherol for 5 days
Method: (§1) Effects of δ-tocopherol and α-tocopherols on (FIG. 4A) free cholesterol, (FIG. 4B) cholesterol ester and (FIG. 4C) sphingomyelin in NPC cells. NPC or WT cells were treated with DMSO, 80 μM α-tocopherol or 40 uM δ-tocopherol for 5 days. Cell pellets were collected and extracted for lipids. FC EC and sphingomyelin levels were measured by GC/MS. (FIG. 4D) Effects of δ-tocopherols and α-tocopherols on cholesterol efflux.
(§2) Cell pellets were collected from 100-mm dishes and washed once with 10 ml PBS. Proteins were assayed using the BCA kit (Sigma-Aldrich) and lipids were extracted by modified Bligh and Dyer procedure (29) from the cells. Internal standards were added based on protein concentration that included N12:0 sphingomyelin, D7-cholesterol, 17:0 cholesterol ester (Avanti Polar Lipids, Inc). A portion of the lipid extract was used for detection of sphingomyelins using direct infusion mass spectrometric assay with lithium hydroxide for facilitating ionization and the rest was used to convert cholesterol and its ester into acetate by derivatization. The derivatization was performed by treating the dried crude lipid extract with solutions of 1 M acetic acid with 1 M DMAP in chloroform and 1 M EDC in chloroform at 50° C. for 2 hours. The derivatized product was extracted with hexane and analyzed by direct infusion mass spectrometric assay with 5% ammonium hydroxide for facilitating ionization.
(§3) A triple-quadrupole mass spectrometer equipped with an electrospray was used for analysis of lipids in positive mode. Sphingomyelins, cholesterol and cholesterol esters were detected by neutral loss scan of 213 (collision energy: 50 V), neutral loss scan of 77 (collision energy: 14 V) and precursor ion scan of m/z 369 (collision energy: 14 V) respectively. Data processing of mass spectrometric analyses including ion peak selection, data transferring, peak intensity comparison and quantitation was conducted using self-programmed Microsoft Excel macros (30).

wild type cells = assay: Lipid measurement by mass spectrometry (GC/MS); assay type: cell-based, human
Method: as §1, §2, §3

NPC1 = assay: Protein expression (Western blot); assay type: cell-based, human; settings: NPC fibroblasts
Method: Cell lysates were prepared as previously described (31) and proteins in lysates were quantified using Bicinchoninic Acid (BCA) Protein Assay Kit (Sigma-Aldrich). Samples were heated at 65C for 10 min before resolved by SDS-PAGE under reducing conditions. Proteins were transferred to PVDF membranes (Bio-Rad Laboratory) using either Criterion Blotter (Bio-Rad Laboratory) or iBlot dry blotting devices (Invitrogen). For NPC1 and HMG-CoA reductase detection, rabbit polyclonal antibodies against NPC1 (Abcam, cat #ab36983, 1:2000) or HMG-CoA reductase (Millipore, cat #07-457, 1:1000) were used, respectively. A peroxidase-conjugated donkey anti-rabbit IgG (Santa Cruz) was used as secondary antibody at a 1:500 dilution.

NPCD fibroblasts = assay: Lysotracker staining assay (lysosome size); assay type: cell-based, human
Method: Lysotracker is fluorescent dye that stains acidic compartments in live cells and is well-retained after aldehyde fixation. We have optimized a lysotracker staining assay to visualize the enlarged lysosome size in the NPC skin fibroblasts by applying appropriate concentration of lysotracker dye in comparison with these normal fibroblast cells. Cells were seeded at 8000 cells/well in 100 μl medium in a black/clear bottom, tissue culture treated plate and cultured overnight or in a dedicated time. The cells were live-stained with 100 u/well 50 nM Lysotracker Red-99 dye (Invitrogen) dissolved medium at 37° C. for 1 hr followed by two-times plate wash with PBS buffer using the plate-inverted centrifugation method. The plate was then added with 100 μl/well 3.2% formaldehyde and 1 μg/ml Hoechst 33342 (Invitrogen) in PBS and incubated at room temperature for 30 minutes. After three times of plate wash with PBS buffer, samples were stored at 4° C. until imaging. Samples were photographed using an IN Cell Analyzer 1000 (GE Healthcare) with a 20× objective equipped with CCD camera. DAPI filter and TRITC filter were used to visualize Hoechst and Lysotracker red, respectively. The images were processed by Adobe Photoshop.

[1] = tested on: Niemann Pick type A disease fibroblasts; assay: Lysotracker staining assay; assay type: cell-based, human
WT fibroblasts = assay: Microarray gene expression; assay type: cell-based, human; set-up: ACACA expression, Toco treat WT / HMGCR expression, Toco treat WT / SREBF2 expression, Toco treat WT / LDLR expression, Toco treat WT: unit not given here; settings: 40 μM delta-tocopherol 5 days vs DMSO-treated
Method: Five NPC fibroblast cell lines as well as five normal fibroblast cell lines were treated with 40 μM delta-tocopherol for 5 days with a medium change and sully of fresh compound on 3rd day. The total RNAs was prepared as the standard method described previously ( ). The microarray gene expression experiment was carried out in a core microarray facility at NHGRI with a set of AAAAA chips (Affymetrix). Partek Genomics Software Suite (Copyright, Partek Inc.) was used to perform analysis of microarray data. Affymetrix cell files were loaded into the software using the RMA algorithm, which involved background correction, quantile normalization, log-2 transformation, and median polish summarization. PCA and hierarchical clustering identified one sample as an outlier. This sample (sample number 12) was not considered for further analysis. ANOVA was performed to identify the differentially expressed genes for three comparisons: 1) NPC_DMSO vs WT_DMSO 2) NPC tocopherol-treated vs NPC_DMSO-treated and 3) WT_tocopherol-treated vs WT_DMSO-treated.

[2] = tested on: baby hamster kidney cells; assay: Cholesterol efflux; assay type: cell-based
[3] = human plasma, physiological level; cited from earlier work
[4] = tested on: Farber disease fibroblasts; assay: Lysotracker staining assay; assay type: cell-based, human
[5] = tested on: Wolman disease fibroblasts; assay: Lysotracker staining assay; assay type: cell-based, human
[6] = tested on: Tay-Sachs disease fibroblasts; assay: Lysotracker staining assay; assay type: cell-based, human
[7] = wild type cells, 80 μM α-tocopherol or 40 uM δ-tocopherol for 5 days

## Cc1cc(O)cc2c1O[C@](C)(CCC[C@H](C)CCC[C@H](C)CCCC(C)C)CC2 [δ-tocopherol]
NPC fibroblasts; NPCD cells
  amount of cholesterol ester: significantly reduced
  sphingomyelin amount: not significantly changed
NPC fibroblasts; NPCD fibroblasts
  free cholesterol level: nearly recovered to the normal level as in the wild type cells
Wild type cells; normal (WT) cells, 5 days
  free cholesterol level: reduced slightly
Wild type cells; [7]
  amount of cholesterol ester: significantly reduced
  sphingomyelin amount: not significantly changed
NPC1
  expression of NPC-1 protein: not changed
NPC1; listed as Delta-tocopherol
  expression of NPC-1 protein: did not change
NPCD fibroblasts; 9 additional fibroblast primary cells from different NPCD patients
  effect on lysosome size decrease: confirmed
NPCD fibroblasts; NPCD fibroblasts
  enlarged lysosome size: decreased and shrunken to the size similar to the wild type cells
[1]
  size of enlarged lysosomes: significantly reduced
WT fibroblasts
  ABCA1 expression, Toco treat WT: −1.4
  ACACA expression, Toco treat WT: −1.5
  DHCR7 expression, Toco treat WT: −1.6
  FADS2 expression, Toco treat WT: −2.0
  FRRS1 expression, Toco treat WT: −1.1
  HMGCR expression, Toco treat WT: −1.5
  HMGCS1 expression, Toco treat WT: −1.6
  INSIG1 expression, Toco treat WT: −1.6
  LDLR expression, Toco treat WT: −2.0
  MMP1 expression, Toco treat WT: 5.0
  MMP3 expression, Toco treat WT: 2.0
  NOX4 expression, Toco treat WT: −1.7
  SC4MOL expression, Toco treat WT: −1.7
  SCD expression, Toco treat WT: −3.5
  SREBF1 expression, Toco treat WT: −1.2
  SREBF2 expression, Toco treat WT: −1.6
[2]
  cholesterol efflux: significantly increased
[3]
  plasma concentration: ~100 nM
[4]
  size of enlarged lysosomes: significantly reduced
[5]
  size of enlarged lysosomes: significantly reduced
[6]
  size of enlarged lysosomes: significantly reduced
